Measurements published in ChEMBL document CHEMBL3638933, “Pyrrolopyridazine JAK3 inhibitors and their use for the treatment of inflammatory and autoimmune diseases” (2014).

Legend:
[1] = target: Tyrosine-protein kinase JAK1 (Homo sapiens, UniProt P23458); assay: Kinase Assay: The assay reactions were performed in U-bottom 384-well plates. The final assay volume was 30 ul prepared from 15 ul additions of enzyme and substrates (fluoresceinated peptide and ATP) and test compounds in assay buffer (20 mM HEPES pH 7.4, 10 mM MgCl2, 25 mM beta-glycerol phosphate, 0.015% Brij35 and 4 mM DTT). The reaction was initiated by the combination of GST-JAK1 enzyme with substrates and test compounds. The reactions were incubated at room temperature for 3 hours and terminated by adding 60 ul of 35 mM EDTA to each sample. Each reaction mixture was analyzed on the Caliper LabChip 3000 (Caliper, Hopkinton, MA) by electrophoretic separation of the fluorescent substrate and phosphorylated product. […] The final concentration of reagents in the assays was: ATP, 100 uM; fluoresceinated peptide.
Chain of Tyrosine-protein kinase JAK1 (P23458 whole entry): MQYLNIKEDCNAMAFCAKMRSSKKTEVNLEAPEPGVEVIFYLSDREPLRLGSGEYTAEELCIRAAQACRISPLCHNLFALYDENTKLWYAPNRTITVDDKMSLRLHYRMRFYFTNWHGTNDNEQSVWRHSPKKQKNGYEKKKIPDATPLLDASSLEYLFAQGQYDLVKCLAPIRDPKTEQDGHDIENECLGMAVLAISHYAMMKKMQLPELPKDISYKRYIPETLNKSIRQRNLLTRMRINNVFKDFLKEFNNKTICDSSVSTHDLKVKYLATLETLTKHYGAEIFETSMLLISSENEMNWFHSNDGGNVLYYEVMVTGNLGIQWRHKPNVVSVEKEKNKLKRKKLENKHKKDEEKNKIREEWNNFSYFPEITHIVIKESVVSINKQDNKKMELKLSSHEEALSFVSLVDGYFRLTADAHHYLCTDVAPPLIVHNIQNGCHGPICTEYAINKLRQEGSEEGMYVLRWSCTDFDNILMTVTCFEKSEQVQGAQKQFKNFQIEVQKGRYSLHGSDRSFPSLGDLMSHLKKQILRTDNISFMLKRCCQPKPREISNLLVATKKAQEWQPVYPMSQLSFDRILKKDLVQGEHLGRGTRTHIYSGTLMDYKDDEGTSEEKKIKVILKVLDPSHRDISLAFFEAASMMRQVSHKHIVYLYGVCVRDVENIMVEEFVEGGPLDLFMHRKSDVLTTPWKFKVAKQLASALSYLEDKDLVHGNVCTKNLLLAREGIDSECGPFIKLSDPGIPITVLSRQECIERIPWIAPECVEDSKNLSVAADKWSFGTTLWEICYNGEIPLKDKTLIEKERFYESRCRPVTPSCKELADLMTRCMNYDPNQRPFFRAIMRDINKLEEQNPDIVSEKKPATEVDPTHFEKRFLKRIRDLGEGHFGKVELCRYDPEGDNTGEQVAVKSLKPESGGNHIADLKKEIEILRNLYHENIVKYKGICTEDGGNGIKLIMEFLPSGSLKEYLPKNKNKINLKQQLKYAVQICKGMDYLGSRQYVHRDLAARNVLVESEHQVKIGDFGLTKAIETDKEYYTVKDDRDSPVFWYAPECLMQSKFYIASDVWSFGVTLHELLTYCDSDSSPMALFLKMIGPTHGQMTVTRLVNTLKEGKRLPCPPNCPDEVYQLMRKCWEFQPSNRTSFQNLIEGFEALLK

[2] = target: T1, Tyrosine-protein kinase JAK3 (Homo sapiens, UniProt P52333); assay: Reactions were incubated for 30 minutes at room temperature and stopped by the addition of cold trichloroacetic acid (TCA) to a final concentration of 15%. TCA precipitates were collected onto 384 well phosphocellulose filters (Millipore) using a Platemate to transfer the reaction mixture, washed on an EMBLA plate washer and the filters were quantitated using a TopCount 384-well liquid scintillation counter. […] Compounds were dissolved at 10 mM in dimethylsulfoxide (DMSO) and evaluated at six concentrations, each in triplicate. The final concentration of DMSO in the assay equaled 2%.
T1 sequence (P52333 whole entry): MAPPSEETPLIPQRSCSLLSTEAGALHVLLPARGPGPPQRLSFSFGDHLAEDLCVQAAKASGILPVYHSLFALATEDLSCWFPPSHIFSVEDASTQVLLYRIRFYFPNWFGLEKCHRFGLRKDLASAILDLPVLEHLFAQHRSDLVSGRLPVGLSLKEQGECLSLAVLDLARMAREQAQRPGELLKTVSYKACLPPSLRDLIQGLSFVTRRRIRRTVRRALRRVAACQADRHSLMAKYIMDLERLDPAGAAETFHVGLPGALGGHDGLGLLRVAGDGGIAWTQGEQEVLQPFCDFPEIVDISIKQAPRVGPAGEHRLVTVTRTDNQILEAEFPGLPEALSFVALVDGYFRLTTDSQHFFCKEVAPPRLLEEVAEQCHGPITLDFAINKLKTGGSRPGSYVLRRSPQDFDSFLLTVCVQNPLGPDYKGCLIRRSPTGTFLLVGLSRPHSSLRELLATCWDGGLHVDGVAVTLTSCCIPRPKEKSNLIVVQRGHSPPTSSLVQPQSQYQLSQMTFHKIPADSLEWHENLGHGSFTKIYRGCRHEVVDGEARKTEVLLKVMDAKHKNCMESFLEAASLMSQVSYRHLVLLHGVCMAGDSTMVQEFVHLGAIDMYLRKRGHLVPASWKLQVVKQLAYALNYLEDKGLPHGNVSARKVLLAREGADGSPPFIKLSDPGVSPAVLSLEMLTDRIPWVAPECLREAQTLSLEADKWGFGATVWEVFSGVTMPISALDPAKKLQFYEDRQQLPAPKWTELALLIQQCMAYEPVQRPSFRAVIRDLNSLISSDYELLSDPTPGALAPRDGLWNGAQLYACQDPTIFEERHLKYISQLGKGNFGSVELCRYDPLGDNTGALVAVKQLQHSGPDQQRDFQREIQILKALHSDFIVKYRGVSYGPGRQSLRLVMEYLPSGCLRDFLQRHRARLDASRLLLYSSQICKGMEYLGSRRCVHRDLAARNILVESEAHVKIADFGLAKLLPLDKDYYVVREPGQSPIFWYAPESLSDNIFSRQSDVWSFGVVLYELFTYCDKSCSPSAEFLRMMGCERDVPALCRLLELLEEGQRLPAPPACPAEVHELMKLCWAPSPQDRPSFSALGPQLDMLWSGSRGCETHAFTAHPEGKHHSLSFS

- IC50 [1]: 5.8 nM
- IC50 [2]: 1 nM
SMILES: CC1(C)[C@H](Nc2c(C(N)=O)cnn3cc(-c4ccc(C#N)nc4)cc23)CC[C@]1(C)C(N)=O
